Assay results reported in PMC3933693, “Novel Inhibitors of Mitochondrial sn-Glycerol 3-phosphate Dehydrogenase” (PLoS ONE, 2014).

Assays:
mGPDH = biological target: T1, mGPDH (Rattus norvegicus, UniProt P35571); assay: Superoxide/H2O2 production by mGPDH in isolated skeletal muscle mitochondria (Amplex UltraRed); type: biochemical; settings: primary screen, ∼2.5 µM, average of duplicates; 16.7 mM glycerol phosphate, no added calcium
T1 construct: Activity of mGPDH in frozen-thawed skeletal muscle mitochondria was measured; from tissue; host or cells: skeletal muscle mitochondria
T1 sequence (P35571 43-727): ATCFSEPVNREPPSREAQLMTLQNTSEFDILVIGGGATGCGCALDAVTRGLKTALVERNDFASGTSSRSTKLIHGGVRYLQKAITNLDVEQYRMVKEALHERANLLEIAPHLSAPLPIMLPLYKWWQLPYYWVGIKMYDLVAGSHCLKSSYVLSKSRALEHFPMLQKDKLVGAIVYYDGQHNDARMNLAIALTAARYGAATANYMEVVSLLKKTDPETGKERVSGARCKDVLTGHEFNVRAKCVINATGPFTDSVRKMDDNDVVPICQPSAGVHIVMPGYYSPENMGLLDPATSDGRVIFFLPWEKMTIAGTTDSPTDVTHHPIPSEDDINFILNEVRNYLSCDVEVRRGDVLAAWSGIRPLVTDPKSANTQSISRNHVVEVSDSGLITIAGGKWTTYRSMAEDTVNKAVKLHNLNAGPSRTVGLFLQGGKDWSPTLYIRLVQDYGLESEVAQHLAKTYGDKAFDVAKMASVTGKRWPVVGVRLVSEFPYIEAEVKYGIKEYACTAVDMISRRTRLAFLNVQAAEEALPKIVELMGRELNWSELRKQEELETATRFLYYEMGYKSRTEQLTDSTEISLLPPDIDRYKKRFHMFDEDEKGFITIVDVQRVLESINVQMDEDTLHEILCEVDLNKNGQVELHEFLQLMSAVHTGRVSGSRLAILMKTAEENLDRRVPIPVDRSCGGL

[1] = system: flavin mononucleotide site of complex I (site IF) plus matrix NAD-linked dehydrogenases (site IF/DH); assay: Site-specific H2O2 production from site IF/DH in skeletal muscle mitochondria; type: biochemical, rat; settings: primary screen, ∼2.5 µM, average of duplicates
Experimental: (§1) Superoxide was measured as H2O2 after dismutation by endogenous or exogenous superoxide dismutase. Rates of total superoxide/H2O2 production were measured fluorimetrically using Amplex UltraRed in the presence of exogenous superoxide dismutase and horseradish peroxidase in a Varian Cary Eclipse fluorimeter as previously described. Rates of production from specific sites were determined as previously described using the following eight conditions: flavin mononucleotide site of complex I (site IF) plus matrix NAD-linked dehydrogenases (collectively "site IF/DH") with 5 mM glutamate, 5 mM malate, and 4 µM rotenone; ubiquinone-binding site of complex I (site IQ) with either 0.5 or 5 mM succinate; flavin site of complex II (site IIF) with either 15 µM palmitoylcarnitine, 2.5 µM antimycin A, and 2 µM myxothiazol or 0.5 mM succinate, 4 µM rotenone, 2.5 µM antimycin A, and 2 µM myxothiazol, [31]; mGPDH with 1.7 mM glycerol phosphate, 4 µM rotenone, 2.5 µM antimycin A, 2 µM myxothiazol, 1 mM malonate, and 250 nM free calcium; outer ubiquinone-binding site of complex III (site IIIQo) with either 0.5 or 5 mM succinate, 4 µM rotenone and 2.5 µM antimycin A [32]. Candidate small-molecule inhibitors were added prior to the start of measurements and H2O2 calibration curves were performed in the presence of tested compounds.
(§2) 3,200 compounds were tested initially at 2.5 µM (0.025% DMSO final) in duplicate on different plates against a panel of five distinct assays of site-specific superoxide/H2O2 production as described in the previous section with minor changes. […] Endpoint fluorescence was measured on a Perkin Elmer Victor V3 fluorescent plate reader. The fluorescence intensity of each well was normalized as % change from the average of eight DMSO controls on the same plate. Duplicate wells of each of four modulators of mitochondrial metabolism known to inhibit specific sites of superoxide/H2O2 production were included on each plate as positive controls and the resulting fluorescence levels set as −100% change from DMSO controls. Known inhibitors included 20 mM aspartate (for site IF/DH), 1 µM FCCP (for site IQ), 10 mM malonate (for site IIF), and 2 µM myxothiazol (for site IIIQo). The background fluorescence of the FCCP wells in the site IQ assay was used to normalize mGPDH plates run in parallel. To minimize position-dependent effects across each assay plate, Tukey’s two-way median polish was applied to fluorescence values after initial normalization, [36]. Tukey’s polish is an iterative subtraction of the median row and column values from each well’s given row or column. The procedure is repeated until sequential medians for each row and column are zero and positional gradients in fluorescence are eliminated.

[2] = system: ubiquinone-binding site of complex I (site IQ); assay: Site-specific H2O2 production from site IQ in skeletal muscle mitochondria; type: biochemical, rat; settings: primary screen, ∼2.5 µM, average of duplicates; 5 mM succinate;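 note: H2O2 from superoxide detected by Amplex UltraRed fluorescence with added superoxide dismutase and horseradish peroxidase, endpoint read 30–40 min after substrate addition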
Experimental: Superoxide was measured as H2O2 after dismutation by endogenous or exogenous superoxide dismutase. Rates of total superoxide/H2O2 production were measured fluorimetrically using Amplex UltraRed in the presence of exogenous superoxide dismutase and horseradish peroxidase in a Varian Cary Eclipse fluorimeter as previously described [27]. Rates of production from specific sites were determined as previously described using the following eight conditions: flavin mononucleotide site of complex I (site IF) plus matrix NAD-linked dehydrogenases (collectively "site IF/DH") with 5 mM glutamate, 5 mM malate, and 4 µM rotenone [28]; ubiquinone-binding site of complex I (site IQ) with either 0.5 or 5 mM succinate [29]; flavin site of complex II (site IIF) with either 15 µM palmitoylcarnitine, 2.5 µM antimycin A, and 2 µM myxothiazol or 0.5 mM succinate, 4 µM rotenone, 2.5 µM antimycin A, and 2 µM myxothiazol [30], [31]; mGPDH with 1.7 mM glycerol phosphate, 4 µM rotenone, 2.5 µM antimycin A, 2 µM myxothiazol, 1 mM malonate, and 250 nM free calcium; outer ubiquinone-binding site of complex III (site IIIQo) with either 0.5 or 5 mM succinate, 4 µM rotenone and 2.5 µM antimycin A [32]. Candidate small-molecule inhibitors were added prior to the start of measurements and H2O2 calibration curves were performed in the presence of tested compounds.
3,200 compounds were tested initially at 2.5 µM (0.025% DMSO final) in duplicate on different plates against a panel of five distinct assays of site-specific superoxide/H2O2 production as described in the previous section with minor changes. […] Endpoint fluorescence was measured on a Perkin Elmer Victor V3 fluorescent plate reader. The fluorescence intensity of each well was normalized as % change from the average of eight DMSO controls on the same plate. Duplicate wells of each of four modulators of mitochondrial metabolism known to inhibit specific sites of superoxide/H2O2 production were included on each plate as positive controls and the resulting fluorescence levels set as −100% change from DMSO controls. Known inhibitors included 20 mM aspartate (for site IF/DH), 1 µM FCCP (for site IQ), 10 mM malonate (for site IIF), and 2 µM myxothiazol (for site IIIQo). The background fluorescence of the FCCP wells in the site IQ assay was used to normalize mGPDH plates run in parallel. To minimize position-dependent effects across each assay plate, Tukey’s two-way median polish was applied to fluorescence values after initial normalization [35], [36]. Tukey’s polish is an iterative subtraction of the median row and column values from each well’s given row or column. The procedure is repeated until sequential medians for each row and column are zero and positional gradients in fluorescence are eliminated.
These 20 compounds were tested in duplicate at 0.08–80 µM (0.1% DMSO final) in microplate format for effects on site-specific H2O2 production as described above. […] Plates were incubated in the dark at room temperature for 30–40 min (H2O2) or 10–15 min (ΔΨm) after the addition of substrate, and endpoint fluorescence was measured on the Victor plate reader. Endpoints were chosen for the H2O2 assays to provide good signal-to-noise ratios and linear rates of change without the indicator dye limiting the reaction.

[3] = biological target: T2, flavin site of complex II (site IIF) (Rattus norvegicus, UniProt Q920L2); assay: Site-specific H2O2 production from site IIF in skeletal muscle mitochondria; type: biochemical; settings: primary screen, ∼2.5 µM, average of duplicates; palmitoylcarnitine
T2 construct: from tissue; host or cells: skeletal muscle mitochondria
Experimental: as §1, §2

[4] = biological target: T3, outer ubiquinone-binding site of complex III (site IIIQo) (Rattus norvegicus, UniProt P00159+P20788); assay: Site-specific H2O2 production from site IIIQo in skeletal muscle mitochondria; type: biochemical; settings: primary screen, ∼2.5 µM, average of duplicates; 5 mM succinate
T3 construct: from tissue; host or cells: skeletal muscle mitochondria
Experimental: as §1, §2

[5] = system: skeletal muscle mitochondria; assay: Mitochondrial membrane potential (ΔΨm, TMRM) powered by glutamate plus malate; type: biochemical, rat; settings: primary screen, ∼2.5 µM, average of duplicates; glutamate and malate
Experimental: Mitochondrial membrane potential (ΔΨm) was estimated fluorimetrically as described previously [33] on the Varian fluorimeter, except the potentiometric dye TMRM was used in quench-mode in place of safranine O [34]. […] The effect of putative small-molecule inhibitors was normalized as the % change in fluorescence between vehicle treatment and complete depolarization by the uncoupler carbonyl cyanide-4-(trifluoromethoxy)phenylhydrazone (FCCP, 2 µM) added at the end of each run. When indicated, the K^+/H^+ exchanger nigericin (80 ng ⋅ ml^−1) was added to collapse the pH gradient across the mitochondrial inner membrane (ΔpH) and maximize ΔΨm.
All assays were performed with stirring at 37°C.
Additionally, four microplate assays for ΔΨm were run in parallel to the H2O2 assays. These assays were as described under “Measurement of mitochondrial H2O2 production and membrane potential” except that each substrate condition was assayed in a separate microplate. […] Plates were incubated in the dark at room temperature for 30–40 min (H2O2) or 10–15 min (ΔΨm) after the addition of substrate, and endpoint fluorescence was measured on the Victor plate reader. […] Endpoints for the ΔΨm assays were determined in pilot experiments as the times for TMRM accumulation to reach a steady state. At room temperature, this was typically ∼ 5 min and remained stable for at least 30 min. Endpoint fluorescence values were normalized as described in the previous section with wells containing FCCP serving as positive controls for the ΔΨm assays.

T2 sequence (Q920L2 35-656): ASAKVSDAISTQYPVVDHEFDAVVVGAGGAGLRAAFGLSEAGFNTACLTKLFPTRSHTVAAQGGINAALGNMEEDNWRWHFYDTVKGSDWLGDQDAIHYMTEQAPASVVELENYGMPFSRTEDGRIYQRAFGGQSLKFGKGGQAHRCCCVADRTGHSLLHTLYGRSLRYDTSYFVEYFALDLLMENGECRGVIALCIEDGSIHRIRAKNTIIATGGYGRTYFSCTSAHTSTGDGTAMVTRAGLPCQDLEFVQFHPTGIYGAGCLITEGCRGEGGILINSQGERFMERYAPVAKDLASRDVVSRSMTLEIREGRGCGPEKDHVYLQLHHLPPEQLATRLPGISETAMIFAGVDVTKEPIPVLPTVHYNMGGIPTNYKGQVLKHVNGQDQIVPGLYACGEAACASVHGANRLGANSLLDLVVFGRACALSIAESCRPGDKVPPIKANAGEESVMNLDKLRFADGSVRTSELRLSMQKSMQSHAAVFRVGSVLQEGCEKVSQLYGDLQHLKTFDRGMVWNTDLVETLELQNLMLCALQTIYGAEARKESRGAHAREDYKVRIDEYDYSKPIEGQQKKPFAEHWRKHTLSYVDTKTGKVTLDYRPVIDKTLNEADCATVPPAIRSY
T2 sequence (P21913 31-282 partner): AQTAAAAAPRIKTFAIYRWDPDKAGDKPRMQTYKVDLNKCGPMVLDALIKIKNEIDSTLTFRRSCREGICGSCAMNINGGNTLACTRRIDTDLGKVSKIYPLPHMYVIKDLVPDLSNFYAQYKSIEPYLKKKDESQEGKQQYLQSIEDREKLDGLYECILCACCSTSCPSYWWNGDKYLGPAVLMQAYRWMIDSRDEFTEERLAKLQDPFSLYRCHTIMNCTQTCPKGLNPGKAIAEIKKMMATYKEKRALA
T2 sequence (Q641Z9 30-169 partner limits assumed): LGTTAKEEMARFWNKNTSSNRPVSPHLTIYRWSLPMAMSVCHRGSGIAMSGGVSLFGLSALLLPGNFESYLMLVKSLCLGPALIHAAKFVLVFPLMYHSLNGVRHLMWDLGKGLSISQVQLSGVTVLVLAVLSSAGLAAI
T2 sequence (Q6PCT8 57-159 partner): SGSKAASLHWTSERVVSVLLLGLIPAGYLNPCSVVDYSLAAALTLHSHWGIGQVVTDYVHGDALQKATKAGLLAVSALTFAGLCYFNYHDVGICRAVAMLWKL

SMILES | mGPDH (% change from DMSO) (mGPDH) | IF/DH (% change from DMSO) [1] | IQ (% change from DMSO) [2] | IIF (% change from DMSO) [3] | IIIQo (% change from DMSO) [4] | ΔΨm (% change from DMSO) [5]
CC(=O)N(C)c1ccc(NC(=O)c2ccc(-c3ccccc3)cc2)cc1 [compound 5191683] | -10.7% | -3.4% | -6.3% | -1.2% | -9.7% | 0.5%
CN(C)c1nc2ccc(O)cc2s1 [compound 5195231] | -68.8% | -166.4% | -66.7% | -110.1% | -41.2% | 0.4%
CC(C)c1nnc(NC(=O)c2cccc([N+](=O)[O-])c2)s1 [compound 5210298] | -17.8% | -36.0% | -67.3% | -17.8% | 4.3% | -4.4%
Cc1ccc(NC(=O)c2ccc(C(C)(C)C)cc2)cc1 [compound 5210384] | -11.4% | 6.3% | 1.4% | -0.156% | 11.8% | -1.1%
Cc1ccc(S(=O)(=O)CCC#N)cc1C [compound 5210670] | -12.4% | -4.6% | 0.4% | -0.354% | -15.9% | -0.074%
Cc1ccc(S(=O)(=O)c2cc(O)ccc2O)cc1C [compound 5210729] | -21.9% | -32.6% | -40.9% | -53.2% | -50.4% | -0.6%
O=C(O)CSc1cccc(C(=O)Nc2ccc(Br)cc2)c1 [compound 5210767] | -14.1% | -0.5% | -0.0908% | 1.3% | -0.0236% | -0.00715%
CC(=O)c1c(C)n(-c2ccccc2)c2ccc(O)cc12 [compound 5215317] | -14.1% | -34.7% | -13.7% | -26.9% | -6.4% | 0.144%
COc1ccc(C(=O)Nc2ccc(S(=O)(=O)Nc3nc(C)cc(C)n3)cc2)c(OC)c1 [compound 5219504] | -29.8% | -30.7% | -19.3% | -44.3% | -8.8% | 1.4%
CC1(C)CC(=O)C2=C(C1)Nc1cc(Cl)ccc1S2 [compound 5219661] | -22.7% | -91.8% | -52.0% | -32.9% | -20.2% | -1.8%
Cc1nc2ccc(Cl)cc2c2c(N)c3ccccc3n12 [compound 5219795] | -23.3% | -30.5% | -14.8% | -49.0% | -23.3% | 0.6%
CC1=Nc2c([nH]c3ccccc23)-c2cc(C)ccc2N1.Cl [compound 5219818] | -31.6% | -40.2% | -50.1% | -51.0% | -36.6% | -0.5%
CCCCSc1nnc2c(n1)[nH]c1ccc(C)cc12 [compound 5225633] | -10.0% | 16.4% | -2.4% | -0.9% | -13.3% | 1.1%
CCC1CCCCN1C/C=C/c1ccc(N(C)C)cc1 (stereo not drawn) [compound 5429735] | -10.7% | -23.1% | -0.0537% | -4.3% | -11.7% | 0.3%
COc1ccc(CNc2cccc(N(C)C)c2)cc1 [compound 5452512] | -29.7% | -33.7% | -34.0% | -24.5% | -33.8% | 0.0119%
COc1ccc(NCC2CCCCC2)cc1 [compound 5454631] | -20.6% | -52.2% | -40.9% | -25.6% | -14.3% | -0.00487%
c1coc(CNc2ccc3c(c2)OCO3)c1 [compound 5457094] | -20.2% | -27.2% | -27.2% | -27.6% | -17.4% | 0.527%
